Assay results: patent publication US5731160A, “Induction of antigen specific T-lymphocyte responses by stimulation with peptide loaded MHC class I molecules on antigen processing defective mammalian cell lines” (Rijksuniversiteit Leiden, priority 1992, dated 1998)
Read-outs that look alike come from different tables or passages of the source.

Experiments:
[1] = test system: T2 cells; experiment: 51Cr release cytotoxicity assay of p53 peptide specific CTL clones on peptide loaded T2 target cells; type: cell-based, human; conditions: peptide titration
Description: As target cells served T2 cells, labeled with 100 μCi ^51 Cr for 1 h at 37° C. […] The target cells were washed once more before adding them to the effector cells. Effector target ratio ranged from 20:1 to 2.5:1 in twofold dilution. […] Total duration of the incubation time was 4 h at 37° C.
The percentage ^51 Cr release was calculated by the formula: [formula] 7. Cloning of CTL by limiting dilution
The clones were tested for specificity on peptide loaded ^51 Cr labeled target cells ranging from E/T 20 to E/T 2.5 in twofold dilution steps.

[2] = test system: 174CEM.T2 cells; experiment: Primary CTL response induction with p53 peptide loaded 174CEM.T2 cells and HLA-A2.1 positive PBL; type: cell-based, human; conditions: PBL from healthy non-immunized HLA-A2.1 positive donor; peptide 80 μg/ml
Description: 174CEM.T2 (T2) cells in a concentration of 2×10^6 per ml were incubated for 13 hours at 37° C. in a T25 flask (Falcon, Becton & Dickinson, Plymouth, England, cat. no. 3013) in serum-free Iscove's medium (Biochrom KG, Seromed, Berlin, Gemany, cat. no. F0465) with glutamine (2 mM, ICN Biochemicals Inc., Costa Mes, Calif., U.S.A., cat. no. 15-801-55) and antibiotics as mentioned under 2 and p53 peptide at a final concentration of 80 μg/ml. Subsequently the T2 cells were spun down and treated at a density of 20×10^6 cells/ml with Mitomycin C (final concentration 50 μg/ml) in serum-free RPMI 1640 (manufacturer see 2) medium during one hour at 37° C. Thereafter the T2 cells were washed three times im RPMI 1640. Primary CTL responses were induced by filling all wells of a 96-well-U-bottom plate (Costar, Cambridge, Mass., U.S.A., cat. no. 3799) with 1×10^5 Mitomycin-C treated T2 cells in 50 μl of medium (serum-free RPMI 1640 containing glutamine and antibiotics as mentioned before), containing peptide at a concentration of 80 μg/ml. To these stimulator cells were added 4×10^5 HLA-A2.1 positive PBL in 50 μl of medium to each well. Stimulator and responder cells were cocultured for 7 days at 37° C. in an humidified incubator (90% humidity) and 5% CO2 in air.
On days 7 and 14 after primary response induction (see 5) the PBL (responder cells) were restimulated with peptide. […]

[3] = test system: RMA-S cells; experiment: Induction of primary CTL responses in vitro with peptide-loaded RMA-S cells; type: cell-based, murine; conditions: for Induction of primary CTL response by peptide-loaded RMA-S cells: NWP SC of unprimed B6 mice, 5-day culture, RMA-S as stimulator cells
Description: (§1) RMA-S or RMA cells were pre-cultured for 36 h at 22° C. or 37° C. in IMDM medium supplemented with 2% human pooled serum, penicillin (100 IU/ml), kanamycin (100 μg/ml), S and 2-ME (2×10^-5 M). […] Without further washing these (peptide-loaded) RMA-S cells were incubated 1:1(v/v) with C57BL/6 nylon wool-passed spleen cells (B6 NWP SC) in 24-well culture plates: 4×10^6 responder cells and 1×10^6 stimulator cells in 1 ml of culture medium per well in IMDM medium supplemented with 10% FCS, penicillin (100 IU/ml), kanamycin (100 μg/ml), and 2-ME(2×10^-5 M). For a primary CTL response NWP SC of non-immunized C57BL/6 mice were used.
(§2) After 5 days of culture the effectors were harvested on a lymphoprep (Nycomed Pharma, Oslo, Norway) gradient and tested for cytotoxic function on 2000 ^51 Cr-labeled target cells ranging from E/T 50 to E/T 0.8 in twofold dilution steps. The percentage specific ^51 Cr release was calculated by the formula: [formula]
Background (medium) release was always <25% of maximal (2% Triton X-100) release. The SE of triplicate culture was always <5% specific ^51 Cr release. Cytolytic activity calculated from individual dose-response curves is expressed as lytic units per 10^6 effector cells. Calculations were performed using linear regression. As target cells served: B6 mouse embryo cells, treated for 2 days with 50 U/ml IFN-γ at 37° C., LPS-induced (30 μg/ml LPS-B, Bacto Lab., Difco, Detroit, Mich., added to spleen cells for 5 days at 37° C.) B cell blasts from C57BL/6 mice (LPS) or EL4 cell (thymoma cell line of C57BL/6 origin, expressing K^b and Db). […] Virus-infected target cells were prepared by incubating 10^7 target cells with 300 HAU of nonvirulent Sendai virus in 1 ml of medium for 1 h or 12 h before labeling with ^51 Cr (28).
Induction of primary CTL responses in vitro with peptide-loaded RMA-S cells. NWP SC of B6 unprimed mice were stimulated 1:1 (v/v) once in vitro with RMA-S cells, pre-cultured for 36 h at 22° C., only or incubated with 50 μM A16 peptide or 50 μM S16 peptide. Peptide was present during the 5-day culture at 25 μM concentration. The effectors were harvested and tested on B6 mouse embryo cells (MEC) and B6 LPS-induced B cell blasts (LPS) as target cells, without or with 50 μM A16 and S16, respectively.
Peptide titration at induction level (A) and at target level (B) of primary CTL induced by peptide-loaded RMA-S cells.
Primary and secondary CTL responses induced by peptide-loaded RMA-S cells. For primary CTL responses NWP SC of B6 unprimed mice were used (A and B). For secondary CTL responses NWP SC of B6 mice were primed once i.p. with non-virulent Sendai virus (C and D).

[4] = test system: target cells; conditions: references 26 and 12; cited from earlier work
[5] = test system: RMA cells; experiment: Induction of primary CTL responses with peptide-loaded parental RMA cells; type: cell-based, murine; conditions: any peptide concentration, pre-culture at 22° C. or 37° C.
Description: as §1, §2
Background (medium) release was always <25% of maximal (2% Triton X-100) release. The SE of triplicate culture was always <5% specific ^51 Cr release. Cytolytic activity calculated from individual dose-response curves is expressed as lytic units per 10^6 effector cells. Calculations were performed using linear regression. […]

[6] = test system: MHC class I molecules (H-2) on RMA and RMA-S cells; experiment: Direct peptide binding studies with 125I-labeled S9 on RMA and RMA-S cells; set-up: species or system murine
Description: RMA and RMA-S cells were cultured for 36 h at 26° C. in Iscove's medium supplemented with 2% human pooled serum. […] MHC class I molecules were immunoprecipitated using rabbit anti-H-2^b serum (29). Class I-associated peptide was quantitated by γ-spectrometry. For determination of H-2 levels 10^6 cells were iodinated using lactoperoxidase-catalyzed iodination. Subsequently cells were washed three times in PBS and lysed in TRITON X-100 lysis buffer. H-2 antigens were precipitated from equal amounts of trichloro-acetic acid (TCA)-precipitable counts (30) using rabbit anti-H-2^b serum (29). Immunoprecipitates were analysed by SDS-PAGE on 12% gels, and gels were exposed to Kodak (Rochester, N.Y.) X-AR5 (photographic film) films. Results were expressed in arbitrary units. One unit is defined as the level of cell surface H-2 per cell and peptide binding per cell, respectively on RMA cells.
Direct peptide binding studies on RMA and RMA-S cells. […] MHC class I molecules were immunoprecipitated using rabbit anti-H-2^b serum. Class I-associated peptide was quantitated by γ-spectrometry. Results are means of duplicate experiments and shown in dpm after subtraction of normal serum control precipitates (A). In (B) 26° C. pre-cultured RMA and RMA-S cells were surface iodinated and H-2 antigens were precipitated from equal amounts of TCA-precipitable counts using rabbit anti-H-2^b serum. The amount of cell surface H-2 on RMA-S cells is depicted relative to the amount on […]. […] The amount of class I-associated peptide on RMA-S cells is depicted relative to the amount on RMA-S cells, which is set at 1 arbitrary unit. Similar results were obtained in three independent experiments.

[7] = test system: Sendai virus; conditions: reference 12, cited from earlier work
[8] = target: T1, HLA-A2.1 (Homo sapiens, UniProt P04439); experiment: Peptide binding to HLA-A2.1 on (174.CEM) T2 cells; conditions: 200 μg/ml peptide, BB7.2 immunofluorescence
T1 construct: detected by antibody BB7.2
T1 sequence (P04439 25-365): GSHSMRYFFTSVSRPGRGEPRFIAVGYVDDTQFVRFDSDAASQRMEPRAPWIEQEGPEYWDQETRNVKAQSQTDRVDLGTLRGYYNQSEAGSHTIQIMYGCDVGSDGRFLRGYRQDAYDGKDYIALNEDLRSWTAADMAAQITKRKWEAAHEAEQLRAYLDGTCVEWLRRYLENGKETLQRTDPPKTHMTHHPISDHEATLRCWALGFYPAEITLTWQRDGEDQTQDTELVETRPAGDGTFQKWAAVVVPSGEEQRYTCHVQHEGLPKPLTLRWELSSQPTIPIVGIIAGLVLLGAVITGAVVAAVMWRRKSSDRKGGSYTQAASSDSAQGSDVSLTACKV
T1 sequence (P61769 21-119 partner): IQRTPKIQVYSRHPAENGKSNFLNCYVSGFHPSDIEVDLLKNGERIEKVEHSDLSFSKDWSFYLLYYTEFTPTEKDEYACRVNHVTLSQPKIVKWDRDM
Description: Of this suspension 40 μl was put into a V bottomed 96 well plate (Greiner GmbH, Frickenhausen, Germany: 651101) together with 10 μl of the individual peptide dilutions (of 1 mg/ml). […] After a centrifuge round of 1200 rpm the pellet was resuspended in 50 μl of saturating amounts of HLA-A2.1 specific mouse monoclonal antibody BB7.2 for 30 minutes at 4° C.

[9] = 700 nM 125I-S9, 1 h, 26° C., FIG. 4B

CC(C)C[C@H](NC(=O)[C@@H](N)CC(C)C)C(=O)NCC(=O)N[C@@H](CCCNC(=N)N)C(=O)N[C@@H](CC(N)=O)C(=O)N[C@@H](CO)C(=O)N[C@@H](Cc1ccccc1)C(=O)N[C@@H](CCC(=O)O)C(=O)N[C@H](C(=O)O)C(C)C [A8]
peptide concentration sufficient for target cell sensitization [1]: 20 ng/mL
Generation of CTL response against autologous peptide in vitro [2]: possible to generate a CTL response against an autologous peptide

CDSGPSNTPPEIHPW (CDSGPSNTPPEIHPVV) [A16]
Induction of primary CTL response by peptide-loaded RMA-S cells [3]: Primary CTL responses could be induced
Sensitization of target cells for lysis by CTL [4]: sensitize target cells for lysis by a CTL clone

FAPGNYPAL [S9, Sendai virus nucleoprotein peptide of 9 aa]
minimally required concentration for primary response induction by peptide-loaded RMA-S cells ([3]; FIG. 3A and B): 1 µM
Induction of primary CTL response by peptide-loaded RMA-S cells [3]: primary response was obtained only by stimulation of T cells with peptide-loaded RMA-S cells
Induction of primary CTL response by peptide-loaded RMA cells [5]: non-stimulatory
difference in peptide binding per cell between RMA and RMA-S cells [6, 9]: 2.5 fold
peptide binding per H-2 molecule on RMA-S cells versus RMA cells [6, 9]: tenfold higher
peptide concentration giving comparable binding, on RMA-S (26° C.) ([6]; comparable to RMA at 1 μM, FIG. 4A): 1 nM
peptide concentration giving comparable binding, on RMA (26° C.) ([6]; comparable to RMA-S at 1 nM, FIG. 4A): 1 µM
amount of peptide bound to RMA cells at 20 μM ([6]; compared with RMA-S cells at 1 μM): did not reach the amount of peptide bount to RMA-S cells observed at 1 μM

HGEFAPGNYPALWSYA [S16]
Induction of primary CTL response by peptide-loaded RMA-S cells [3]: Primary CTL responses could be induced
Induction of CTL memory in vivo by vaccination with peptide [7]: induces CTL memory in vivo
Protection against lethal Sendai virus infection [7]: induce protective immunity against a lethal Sendai virus infection
Protection against lethal Sendai virus infection ([7]; listed as Sendai virus 16-mer peptide): protection against otherwise lethal Sendai virus doses
Sensitization of target cells for lysis by CTL [4]: sensitize target cells for lysis by specific H-2K^b -restricted CTL

RMPEAAPPV [D6]
Binding to HLA-A2.1 [8]: bind to the HLA-A2.1 molecule
